These are literature values, as cited in US10842805B2, “Compositions containing enriched natural crocin and/or crocetin, and their therapeutic or nutraceutical uses” (priority 2012, dated 2020).

SMILES strings stand for the structures.

This data set deals with ethanol-induced inhibition of hippocampal long-term potentiation. To be noted: mouse, in vivo.

With `CC(/C=C/C=C(\C)C(=O)O)=C\C=C\C=C(C)\C=C\C=C(/C)C(=O)O` [crocetin], the “constituent to which the beneficial effect of saffron extract is attributed” value is reported as “not crocetin”.
Turning to `CC(/C=C/C=C(\C)C(=O)O[C@@H]1O[C@H](CO[C@@H]2O[C@H](CO)[C@@H](O)[C@H](O)[C@H]2O)[C@@H](O)[C@H](O)[C@H]1O)=C\C=C\C=C(C)\C=C\C=C(/C)C(=O)O[C@@H]1O[C@H](CO[C@@H]2O[C@H](CO)[C@@H](O)[C@H](O)[C@H]2O)[C@@H](O)[C@H](O)[C@H]1O` [crocin, Crocetin-di-beta-D-gentiobiosyl ester], the “constituent to which the beneficial effect of saffron extract is attributed” value is on record as “attributed to crocin”.
